Patent US6720346B2, “Thiazole benzamide derivatives and pharmaceutical compositions for inhibiting cell proliferation” (Agouron Pharmaceuticals, Inc., priority 2001, dated 2004)
Structures can show the parent of a compound that is named as a salt.

Key:
[1] = target: T1, CDK2/cyclin A (Homo sapiens, UniProt P24941); assay: Inhibition of CDK2/cyclin A retinoblastoma kinase activity (Ki; % inhibition); assay type: biochemical; conditions: for Ki: apparent Ki, CDK2/cyclin A, Rb substrate
T1 construct: made in house; host or cells: CDK2: insect cells (baculovirus); cyclin A: E. coli
Outline: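 Apparent Ki values came from fitting concentration-dependent activity data to competitive (or competitive tight-binding) models, and % inhibition from single 30 nM screens of library compounds. Activity was measured as ³²P/³³P incorporation from 25 μM ATP into an Rb substrate by 10 or 19 nM CDK2/delta cyclin A at 30 °C over 60–75 min, pH 7.4.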

[2] = target: T2, human CDK4/cyclin D3 (Homo sapiens, UniProt P11802); assay: Inhibition of CDK4/cyclin D retinoblastoma kinase activity (Ki; % inhibition); assay type: biochemical; conditions: for Ki: apparent Ki, CDK4/cyclin D3, Rb substrate
T2 construct: made in house; host or cells: insect cells co-infected with baculovirus vectors
Outline: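 Radiometric filter-binding read-out: Rb residues 386-928 phosphorylated by 5 nM CDK4/cyclin D3(1-264) from baculovirus-infected insect cells, 25 μM ATP, HEPES pH 7.4, 30 °C. Run 20 min, or 60 min for tight-binding inhibitors. Screening at 30 nM theoretical compound; apparent Ki by competitive-inhibition fitting.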

[3] = tested on: HCT-116 cell line; assay: Inhibition of cell growth, MTT tetrazolium salt assay; assay type: cell-based; conditions: for IC50: Homo sapiens, HCT-116, 120 h, MTT, three to five days
Outline: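 Cells in McCoy's 5A medium were given 4 h before compound addition in 0.5% (v/v) DMSO, then incubated 3–5 days at 37 °C, 5% CO2. After 4 h with 0.2 mg/mL MTT, DMSO-solubilized formazan was read at 540 nm; 50% and 90% growth-inhibitory concentrations came from semi-log plots against vehicle controls.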

[4] = HCT-116 cells, 0.25 μM compound

T2 sequence (P11802 whole entry): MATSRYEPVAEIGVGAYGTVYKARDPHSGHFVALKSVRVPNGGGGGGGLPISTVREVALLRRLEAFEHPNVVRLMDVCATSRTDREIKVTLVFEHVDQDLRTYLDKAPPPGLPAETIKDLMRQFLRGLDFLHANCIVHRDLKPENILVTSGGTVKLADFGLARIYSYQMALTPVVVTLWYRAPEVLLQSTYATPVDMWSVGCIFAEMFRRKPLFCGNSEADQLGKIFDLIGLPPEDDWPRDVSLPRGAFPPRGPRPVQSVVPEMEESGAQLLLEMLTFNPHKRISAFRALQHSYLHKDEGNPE
T2 sequence (P30281 1-264 partner limits assumed): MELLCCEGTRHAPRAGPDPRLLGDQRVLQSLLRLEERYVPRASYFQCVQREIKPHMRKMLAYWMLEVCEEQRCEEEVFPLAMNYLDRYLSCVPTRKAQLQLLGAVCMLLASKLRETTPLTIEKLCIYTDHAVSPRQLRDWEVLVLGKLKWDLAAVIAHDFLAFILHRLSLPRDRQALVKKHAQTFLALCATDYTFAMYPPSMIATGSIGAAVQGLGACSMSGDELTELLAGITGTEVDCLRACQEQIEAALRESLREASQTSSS

Nc1nc(Nc2ccc(C(=O)NCC3CCCCN3)cc2)sc1C(=O)c1c(F)cccc1F (stereo not shown) [Example A33, 4-[4-Amino-5-(2,6-difluoro-benzoyl)-thiazol-2-ylamino]-N-(piperidin-2RS-ylmethyl)-benzamide Trifluoroacetate Salt]
Ki [1]: 91 nM | Ki [2]: 10 nM | IC50 [3]: 2200 nM

CCN(C(=O)c1ccc(Nc2nc(N)c(C(=O)c3c(F)cccc3F)s2)cc1)C1CCCCC1 [Example G312]
CDK2 % Inhibition at 0.03 μM ([1]; 0.03 μM compound): −10% | CDK4 % Inhibition at 0.03 μM ([2]; 0.03 μM compound): 5% | HCT-116 % Inhibition at 0.1 μM ([3]; HCT-116 cells, 0.1 μM compound): 8% | HCT-116 % Inhibition at 0.25 μM [3, 4]: 58%

Nc1nc(Nc2ccc(C(=O)NCC(O)CO)cc2)sc1C(=O)c1c(F)cccc1F (stereo not shown) [Example G279]
CDK2 % Inhibition at 0.03 μM ([1]; 0.03 μM compound): −2% | CDK4 % Inhibition at 0.03 μM ([2]; 0.03 μM compound): 17% | HCT-116 % Inhibition at 0.1 μM ([3]; HCT-116 cells, 0.1 μM compound): 2% | HCT-116 % Inhibition at 0.25 μM [3, 4]: 52%

CN(C)CCNC(=O)c1cccc(Nc2nc(N)c(C(=O)c3c(F)cccc3F)s2)c1 [F]
Ki [1]: 270 nM | Ki [2]: 140 nM | IC50 [3]: 1800 nM

C[C@@H](CN(C)C)NC(=O)c1ccc(Nc2nc(N)c(C(=O)c3c(F)cccc3F)s2)cc1 [Example A41]
Ki [1]: 230 nM | Ki [2]: 35 nM | IC50 [3]: 180 nM

CCC(CO)NC(=O)c1ccc(Nc2nc(N)c(C(=O)c3c(F)cccc3F)s2)cc1 (stereo not shown) [Example G156]
CDK2 % Inhibition at 0.03 μM ([1]; at 0.03 μM): 24% | CDK4 % Inhibition at 0.03 μM ([2]; at 0.03 μM): 24% | HCT-116 % Inhibition at 0.1 μM ([3]; HCT-116, at 0.1 μM, 0.1 µM): 0% | HCT-116 % Inhibition at 0.25 μM ([3]; HCT-116, at 0.25 μM, 0.25 µM): 61%

C[C@@H]1CN(CCNC(=O)c2ccc(Nc3nc(N)c(C(=O)c4c(F)cccc4F)s3)cc2)C[C@H](C)N1 [Example A57]
Ki [1]: 54 nM | Ki [2]: 10 nM | IC50 [3]: 3800 nM

Nc1nc(Nc2ccc(C(=O)NCc3ccc(F)c(F)c3)cc2)sc1C(=O)c1c(F)cccc1F [Example G317]
CDK2 % Inhibition at 0.03 μM ([1]; 0.03 μM compound): 27% | CDK4 % Inhibition at 0.03 μM ([2]; 0.03 μM compound): 33% | HCT-116 % Inhibition at 0.1 μM ([3]; HCT-116 cells, 0.1 μM compound): 27% | HCT-116 % Inhibition at 0.25 μM [3, 4]: 87%

CCCCNC(=O)c1ccc(Nc2nc(N)c(C(=O)c3c(F)cccc3F)s2)cc1 [Example G186]
CDK2 % Inhibition at 0.03 μM ([1]; at 0.03 μM): 7% | CDK4 % Inhibition at 0.03 μM ([2]; at 0.03 μM): 30% | HCT-116 % Inhibition at 0.1 μM ([3]; HCT-116, at 0.1 μM): 14% | HCT-116 % Inhibition at 0.25 μM ([3]; HCT-116, at 0.25 μM): 51%

Nc1nc(Nc2ccc(C(=O)NCc3ccccn3)cc2)sc1C(=O)c1c(F)cccc1F [Example G180]
CDK2 % Inhibition at 0.03 μM ([1]; at 0.03 μM): 22% | CDK4 % Inhibition at 0.03 μM ([2]; at 0.03 μM): 29% | HCT-116 % Inhibition at 0.1 μM ([3]; HCT-116, at 0.1 μM): 25% | HCT-116 % Inhibition at 0.25 μM ([3]; HCT-116, at 0.25 μM): 68%

CC(C)C[C@@H](CO)NC(=O)c1ccc(Nc2nc(N)c(C(=O)c3c(F)cccc3F)s2)cc1 [Example G333]
CDK2 % Inhibition at 0.03 μM ([1]; 0.03 μM compound): −16% | CDK4 % Inhibition at 0.03 μM ([2]; 0.03 μM compound): −5% | HCT-116 % Inhibition at 0.1 μM ([3]; HCT-116 cells, 0.1 μM compound): 4% | HCT-116 % Inhibition at 0.25 μM [3, 4]: 51%

Nc1nc(Nc2ccc(C(=O)NCCCN3CCCC3=O)cc2)sc1C(=O)c1c(F)cccc1F [Example G88]
CDK2 % Inhibition at 0.03 μM ([1]; at 0.03 μM): −23% | CDK4 % Inhibition at 0.03 μM ([2]; at 0.03 μM): 6% | HCT-116 % Inhibition at 0.1 μM ([3]; HCT-116, at 0.1 μM): 24% | HCT-116 % Inhibition at 0.25 μM ([3]; HCT-116, at 0.25 μM): 49%

Nc1nc(Nc2ccc(C(=O)N3CCC(O)C3)cc2)sc1C(=O)c1c(F)cccc1F (stereo not shown) [Example G55]
CDK2 % Inhibition at 0.03 μM ([1]; at 0.03 μM): 22% | CDK4 % Inhibition at 0.03 μM ([2]; at 0.03 μM): 16% | HCT-116 % Inhibition at 0.25 μM ([3]; HCT-116, at 0.25 μM): 57%

COc1cccc(CCNC(=O)c2ccc(Nc3nc(N)c(C(=O)c4c(F)cccc4F)s3)cc2)c1 [Example G193]
CDK2 % Inhibition at 0.03 μM ([1]; at 0.03 μM): 19% | CDK4 % Inhibition at 0.03 μM ([2]; at 0.03 μM): 26% | HCT-116 % Inhibition at 0.1 μM ([3]; HCT-116, at 0.1 μM): 17% | HCT-116 % Inhibition at 0.25 μM ([3]; HCT-116, at 0.25 μM): 56%

Nc1nc(Nc2ccc(C(=O)NCC3CC3)cc2)sc1C(=O)c1c(F)cccc1F [Example G144]
CDK2 % Inhibition at 0.03 μM ([1]; at 0.03 μM): 0% | CDK4 % Inhibition at 0.03 μM ([2]; at 0.03 μM): 11% | HCT-116 % Inhibition at 0.1 μM ([3]; HCT-116, at 0.1 μM): 0% | HCT-116 % Inhibition at 0.25 μM ([3]; HCT-116, at 0.25 μM): 57%
